In US20240156718A1, “TOPICAL COMPOSITION AND USE THEREOF” (BLIS TECHNOLOGIES LIMITED, priority 2021, published 2024):

Tests used:
[1] = system: M. luteus Q24; assay: Inhibition by potential prebiotics spotted on a Q24 lawn; type: cell-based, Streptococcus salivarius; conditions: 20 μL spots, 24 hours at 37° C.; for Suitable to be used in Q24 containing serum/product?: 100% to 0.3% (oils at 100% only); for inhibitory concentration vs Blis Q24: 100% to 0.3%
Protocol: CABK12 agar plates were split into segments of 6 and […] suspension of M. luteus […] raw ingredient P3. Each of the aqueous potential prebiotic substances to be screened were serially diluted in a range of concentrations from 100% to 0.3% using sterile distilled water. Oil based substances were tested at 100% only. 20 μL of each concentration, of each substance were pipetted into a spot onto one segment of the […]12 agar plate and was incubated for 24 hours at 37° C. 5% CO2 in air.

[2] = system: EpiDerm tissues; assay: EpiDerm safety experiment, cytokine levels day 0 and day 4; type: cell-based, human; conditions: Blis Q24 1×10^8 CFU/ml or vitamin C 50 μg/mL
Protocol: Upon receipt, the final development of the immature EpiDerm (EPI-201-4D; MatTekCorporation, Ashland, MA, USA) tissues was completed following the manufacturer's instructions. In brief, the tissues were transferred from the agarose-containing gel on which they were shipped to cell culture plates containing pre-warmed differentiation medium (EPI-201-DM). They were then maintained at 37° C. in a 5% CO2 atmosphere for 4 days, with 2 or […] changes to fresh differentiation medium during that period. Finally, the fully developed EpiDerm tissues were transferred to fresh plates containing standard culture medium (EPI-100-NMM) for use in each experiment.
(§1) The maturation of 36 immature EpiDerm tissues was performed as described above. The fully differentiated tissues were numbered from 1-36 and were randomly assigned to receive one of the treatments shown in Table 3. This was done such that each of the 6 combinations of main treatment (PBS, Q24 or vitamin C) and 0.5% SDS exposure treatment (±0.5% SDS) was randomly represented on each of five 6-well cell culture plates. The remaining 6 tissues, which were destined for histology or else to receive 5% SDS, were grouped together on the sixth cell culture plate. Following maturation, the 36 tissues were cultured in the assay medium for 24 h at 37° C. in a 5% CO2 atmosphere, after which the baseline (day 0) conditioned media samples were collected and stored frozen at −80° C. for cytokine measurement. […] The viabilities of the other 33 tissues were assessed using the MTT viability assay.
(§2) For quantification of IL-1β, IFN-α2, IFN-γ, TNF-α, MCP-1 (CCL2), IL-6, IL-8 (CXCL8), IL-10, IL-12p70, IL-17A, 1L-18, IL-23, and IL-33, bead-based multiplex LEGENDplex™ analysis(LEGENDplex™ Human Inflammation Panel 1 (13-plea); BioLegend, San Diego, CA, USA) was used according to the manufacturer's instructions. The relevance of each of the measured cytokines is described in Table 4. […] Data were analysed via Legendplex V8.0 software (BioLegend) and specified as pg/mL.

[3] = system: EpiDerm tissues; assay: EpiDerm anti-inflammatory effect, cytokine release in response to 0.5% SDS; type: cell-based, human; conditions: pre-treatment, day 5 vs day 4
Protocol: as §1, §2

[4] = system: Blis Q24; assay: Effect of prebiotics on the growth of Blis Q24 in M17 broth; type: cell-based, Micrococcus luteus; conditions: 5% prebiotic in M17 broth
Protocol: A batch of M17 broth (Difco #218561) was made, excluding the lactose solution, by following the manufacturer's instructions. 50 ml of broth was dispensed into sterile 100 ml Schott bottles and 2.5 g (5%) of each potential prebiotic substance was added and mixed well using a magnetic stirrer and stir plate. The mixtures were autoclaved at 110° C. for 10 minutes and allowed to cool. The suspensions of the prebiotic candidates were prewarmed to 40° C. in order to allow for increased homogenisation of any oil-based components prior to dispensing into the wells. 2 ml of each suspension and an M17 only (control) were pipetted into a sterile 24 well tissue culture plate. A suspension of […] raw ingredient P3 was made in PBS and adjusted to an optical density of 0.125. 100 μl of the suspension was pipetted into each well. Once the suspension was added each well was mixed by aspirating and dispensing the solution 5 times with a 1 ml pipette. Each sample was enumerated at time points 0, 3, 6, 15, 26 and 34 hours using the following method. […] The number of colonies in each spot were then counted using an electronic colony counter and average to give the final result. […] Olive squalene was selected as one of the preferred prebiotics with 3 others that were analysed in combination with olive squalene and compared to the results of the prebiotic candidates alone (FIG. 13).

[5] = system: skin commensals S. epidermidis #4, S. epidermidis E30, S. hominis ATCC 27844; assay: Prebiotic activity against skin commensals (growth); type: cell-based; conditions: FIG. 14
Protocol: The same method was used as above for Blis Q24 ingredient except the suspensions with optical density of 0.125 were prepared for each of the 3 selected skin commensals.
The skin commensals selected were: • S. epidermidis #4—Sensitive to Q24 inhibition • S. epidermidis E30—Resistant to Q24 inhibition • S. hominis ATCC 27844—Mixed resistance condition dependent

Row | Compound | Suitable to be used in Q24 containing serum/product? [1] | further results
1 | Cc1c(C)c2c(c(C)c1O)CC[C@@](C)(CCC[C@H](C)CCC[C@H](C)CCCC(C)C)O2 [Vitamin E, D Alpha Tocopherol 1000IU, D Alpha Tocopherol] | Yes | 
2 | CC1=C(/C=C/C(C)=C/C=C/C(C)=C/CO)C(C)(C)CCC1 [Retinol (Vitamin A), Retinol] | Yes | 
3 | NC(=O)NC1NC(=O)NC1=O (stereo not drawn) [Allantoin] | Yes | 
4 | O=C(O)c1ccccc1O [Salicylic acid (SA), Salicylic acid] | No | inhibitory concentration vs Blis Q24 [1]: > 5%
5 | O=C1O[C@H]([C@@H](O)CO)C(O)=C1O [Vitamin C (Ascorbic acid), Ascorbic acid] | Yes | IL-6 levels, day 4 vs day 0 ([2]; daily for 4 days): slight but significant increase; IL-8 levels, day 4 vs day 0 ([2]; daily for 4 days): unchanged; IL-18 levels, day 4 vs day 0 ([2]; no significant differences): trend for lower values; IL-6 released in response to 0.5% SDS [3]: slight increase
6 | Hyaluronic acid | Yes | 
7 | OC[C@@H](O)[C@H](O)[C@@H](O)CO [Xylitol] | Yes | growth of Q24 compared to the control [4]: detrimental to the live Q24 cell count at 24 hours
8 | NC(=O)c1cccnc1 [Niacinamide] | Yes | 
9 | CC(O)C(=O)O (stereo not drawn) [Lactic acid (LA), Lactic acid] | No | inhibitory concentration vs Blis Q24 [1]: > 2.5%
10 | CC(C)=CCC/C(C)=C/CC/C(C)=C/CC/C=C(\C)CC/C=C(\C)CCC=C(C)C [Olive Squalene] | Yes | growth of skin commensals compared to control media [5]: do not offer any advantage
